Experimental findings from paper PMC9283466, “In silico identification of two peptides with antibacterial activity against multidrug-resistant Staphylococcus aureus” (NPJ Biofilms and Microbiomes, 2022) are described below.

Converted amounts (≈) assume the structure as drawn. Bridge positions count the residues as written; N and C are the ends. Peptide text beside a SMILES is read from it. A value given as a limit tells only on which side of the number the result lay.

The subject of series [1] is MRSA USA300 cells. Kind of series: ATP depletion assay. The conditions noted are these: P = 0.018 (HG2) and 0.003 (HG4). The series is classed as cell-based, Staphylococcus aureus. As for the experimental part: Adenosine triphosphate (ATP) drives many cellular and metabolic processes and can be used to ascertain the integrity of cells. […] Briefly, in a clear 96-well plate, samples and ATP standard provided with the kit were added in a reaction mix containing ATP assay buffer, ATP Probe and Converter and Developer mix. The reaction mix was incubated in the dark at room temperature for 30 min. Absorbance (570 nm0 was then measured in a microplate spectrophotometer. The background ATP levels obtained from samples and ATP standards were autocorrected by subtracting ATP levels from blank treatments. The amount of ATP in unknown samples was determined from the ATP standard curve and calculated using the formula in the instruction manual. All measurements were performed in triplicates.

Another series deals with Ent. faecalis JH2-2. The series can be described thus: microbe, parasite or virus in culture. The series is classed as cell-based, Enterococcus faecalis. How it is done:
(§1) To determine the antimicrobial activity of the new antimicrobial peptides, HG2 and HG4, their minimum inhibitory concentrations (MICs) were determined by broth microdilution method[51] in cation adjusted Mueller Hinton broth (MHB) following the International Organisation for Standardisation (ISO) 20776-1 standard for MIC testing using a final bacterial inoculum of 5 × 10^5 CFU/ml[52]. […] The peptides dissolved in sterile distilled water were added to bacteria culture and incubated overnight at appropriate conditions. The MICs of the peptides and comparator antibiotics were recorded after 18–24 h. The minimum bactericidal concentrations (MBCs) were also determined and were taken as the lowest concentration of the antimicrobial that prevented the growth of bacterial cells after the subculture of cells (from MIC treatment) onto antibiotic-free media.

The nature of series [2]: Peptide-lipid interaction and insertion, lipid monolayer. The series is classed as binding, E. coli. The following applies: LPS; for Speed of insertion: initial surface pressure 30+/-0.5 mN/m; for Critical pressure of insertion πc: peptide 1 µg/mL. How it is done: (§2) Peptide–lipid interaction was measured using a lipid monolayer formed at the air:water interface with total lipid extracts and pure lipids. Total lipids were extracted from overnight cultures of MRSA or human erythrocytes using the Folch extraction procedure[14],[40]. Extracted total lipids were dried, re-solubilised in chloroform:methanol (2:1, v/v) and stored at −20 °C under nitrogen. Pure prokaryotic and eukaryotic lipids used were: cardiolipin, POPC (1-palmitoyl-2-oleoyl-glycero-3-phosphocholine), POPE (1-palmitoyl-2-oleoyl-sn-glycero-3-phosphoethanolamine) and POPG (1-palmitoyl-2-oleoyl-sn-glycero-3-phospho-(1’-rac-glycerol) (Avanti Polar Lipid). LTA (Lipoteichoic acid from S. aureus) and LPS (lipopolysaccharide from E. coli) (Invitrogen, UK) were also tested. Pure lipids were reconstituted in chloroform:methanol (2:1 v/v) at 1 mg/ml and stored at −20 °C under nitrogen. For peptide–lipid interaction assay, lipid monolayers at the air:water interface were formed by spreading total lipid extract or pure lipids at the surface of 800 µl of sterile PBS using a 50 µl Hamilton’s syringe. Lipids were added until the surface pressure reached the desired value. After 5–10 min of incubation allowing the evaporation of the solvent and stabilisation of the initial surface pressure, 8 µl of HG2 or HG4 diluted in sterile PBS at 100 µg/ml were injected into the 800 µl sub-phase of PBS under the lipid monolayer (pH 7.4, volume 800 µl) using a 10 µl Hamilton’s syringe giving a final concentration of peptide of 1 µg/ml, as preliminary experiments had shown that this concentration was optimal. The variation of the surface pressure caused by peptide insertion was then continuously monitored using a fully automated microtensiometer (µTROUGH SX, Kibron Inc, Finland) until it reached equilibrium (maximal surface pressure increase is usually obtained after 15–25 min). To reflect physiological situations, the initial surface pressure was fixed at 30 ± 0.5 mN/m in some experiments as this value corresponds to a lipid packing density theoretically equivalent to that of the outer leaflet of the eukaryotic and prokaryotic cell membrane. In other experiments, the critical pressure of insertion of HG2 or HG4 in the total lipid extracts and pure lipids was measured as follows[14],[56]. Briefly, in these experiments, the initial pressure of the lipid monolayer was set up at different values (between 10 and 30 mN/m) and the variation of pressure caused by the injection of the peptide was measured. […] All experiments were carried out in a controlled atmosphere at 20 ± 1 °C and data were analyzed using the Firmware 2.5 programme (Kibron Inc.). The accuracy of the system under our experimental conditions was determined to be ±0.25 mN/m for surface pressure measurements.

Series [3] deals with MRSA USA300 cells. Kind of series: Time-kill kinetics. The conditions noted are these: 3x MIC; for reduction in viable cells (time-kill): within the first 10 min, logarithmic-phase MRSA USA300; for time to complete cell death: no recovery observed after 24 h. The series is classed as cell-based, Staphylococcus aureus. As for the experimental part: The bactericidal activity of HG2, HG4 and comparator antimicrobial compounds was assessed using exponential-phase cultures[14] of MRSA USA300 grown in MHB (1 × 10^6-8 CFU/ml). […] Samples were taken at different time points, serially diluted and inoculated onto MH agar plates using the spread plate technique. After overnight incubation, the colony-forming units per millilitre of cell culture (CFU/ml) was calculated. Experiments were performed in quadruplicates.

For another series, the system named is Sal. typhimurium SL1344. Kind of series: microbe, parasite or virus in culture. The series is classed as cell-based, Salmonella enterica serovar Typhimurium. How it is done:
as §1

In another series the test system is G. mellonella larvae. More on the design: species or system Galleria mellonella. The following applies: in vivo. How it is done:
All procedures of larvae rearing, injection and G. mellonella killing assays were conducted using validated methods. In each assay, ten larvae weighing between 280–300 mg each were randomly selected. Larvae with the previous melanisation of the cuticle were excluded from the experiments. All experiments were designed in at least four experimental and biological replicates.
Firstly, we evaluated the putative toxic effect of the peptides HG2 and HG4 in G. mellonella. […] After injection with peptides, the larvae were maintained at 37 °C in the dark. Phenotypic aspects such as melanisation and mobility of the larvae as well as survival were monitored every 24 for 96 h. Larvae not inoculated with AMPs were used as controls.

A short description of series [4]: Peptide-lipid interaction and insertion, lipid monolayer. The conditions noted are these: LTA; for Speed of insertion: initial surface pressure 30+/-0.5 mN/m; for Critical pressure of insertion πc: peptide 1 µg/mL. The series is classed as binding, S. aureus. As for the experimental part:
as §2

The test system of series [5] is L. monocytogenes NCTC 11994. The series can be described thus: microbe, parasite or virus in culture. The conditions noted are these: NCTC 11994. The series is classed as cell-based, Listeria monocytogenes. As for the experimental part:
as §1

A further series concerns List. monocytogenes. The series can be described thus: microbe, parasite or virus in culture. The series is classed as cell-based, Listeria monocytogenes. As for the experimental part: as §1
The subject of another series is P. aeruginosa. Kind of series: microbe, parasite or virus in culture. The series is classed as cell-based, Pseudomonas aeruginosa. In short, it runs like this:
(§3)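 MIC: cation-adjusted MHB, ISO 20776-1 microdilution, 5 × 10^5 CFU/ml final; peptides in sterile water; read at 18–24 h. MBC: MIC wells subcultured onto drug-free media, lowest concentration with no growth.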

The test system of another series is Ent. faecalis. Kind of series: microbe, parasite or virus in culture. The series is classed as cell-based, Enterococcus faecalis. The following applies: Ent. faecalis; Supplementary Table 5. How it is done: as §1
For the next series, the system named is Sal. typhimurium. The series can be described thus: microbe, parasite or virus in culture. The series is classed as cell-based, Salmonella enterica serovar Typhimurium. The conditions noted are these: Sal. typhimurium; Supplementary Table 5. How it is done:
as §1

A further series concerns EMRA-15. The series can be described thus: microbe, parasite or virus in culture. The series is classed as cell-based, Staphylococcus aureus. In short, it runs like this: as §3

`CC[C@H](C)[C@H](NC(=O)[C@H](CC(C)C)NC(=O)[C@H](CC(C)C)NC(=O)[C@H](CC(C)C)NC(=O)[C@H](CCCCN)NC(=O)[C@H](CCCCN)NC(=O)[C@@H](N)CCSC)C(=O)N[C@@H](CC(C)C)C(=O)N[C@@H](Cc1ccccc1)C(=O)N[C@H]1CSSC[C@@H](C(=O)N[C@@H](CCCCN)C(=O)N[C@@H](CCCCN)C(=O)N[C@@H](C)C(=O)N2CCC[C@H]2C(N)=O)NC(=O)CNC(=O)[C@H](C)NC(=O)[C@H](CC(C)C)NC(=O)[C@H](C)NC(=O)[C@H](CC(C)C)NC(=O)[C@H](C)NC(=O)[C@H](CC(C)C)NC1=O` [HG2] (H-MKKLLLILFCLALALAGCKKAP-NH2; disulfide 10-18; N-terminus assumed): the “effect on ATP concentration” value in the series with MRSA USA300 cells [1] was “decrease in ATP concentration”. The MIC against Ent. faecalis JH2-2 was determined as 256 µg/mL (≈ 109 µM). In addition, in series [2], the Speed of insertion is given as 0.43 mN/m/10 sec and the “Critical pressure of insertion πc” value came out at 36.03 mN/m. In addition, in the series on MRSA USA300 cells [3], the “reduction in viable cells (time-kill)” value was over 3 log10 CFU/ml and the “time to complete cell death” value is given as at most 10 min. Further, the MIC against Sal. typhimurium SL1344 is 256 µg/mL (≈ 109 µM). In the series with G. mellonella larvae, the “larvae survival rate, uninfected larvae” value was found to be 100% and the “toxic effect in G. mellonella” value is listed as “no toxic effect”. Moreover, in series [4], the Speed of insertion came out at 0.80 mN/m/10 sec and the “Critical pressure of insertion πc” value was 47.81 mN/m.
`CC[C@H](C)[C@H](NC(=O)[C@H](CC(C)C)NC(=O)[C@H](CC(C)C)NC(=O)[C@H](C)NC(=O)CNC(=O)CNC(=O)[C@@H](NC(=O)[C@@H](NC(=O)[C@H](CC(C)C)NC(=O)[C@H](C)NC(=O)[C@H](CC(C)C)NC(=O)CNC(=O)[C@H](CC(C)C)NC(=O)[C@@H](N)C(C)C)[C@@H](C)CC)C(C)C)C(=O)N[C@@H](CCCCN)C(=O)N[C@@H](CCCCN)C(=O)N[C@@H](CCCCN)C(=O)N[C@@H](CCC(N)=O)C(=O)N[C@@H](C)C(=O)N[C@@H](CCCCN)C(=O)N[C@@H](CO)C(N)=O` [HG4] (H-VLGLALIVGGALLIKKKQAKS-NH2; N-terminus and C-terminus assumed) showed an MIC in series [5] of 512 µg/mL (≈ 242 µM). The “Minimum inhibitory Concentrations MICs” value in the series on List. monocytogenes is 512 µg/mL; with P. aeruginosa, at least 1024 µg/mL; in the series on Ent. faecalis it was 128 µg/mL; in the series with Sal. typhimurium, 512 µg/mL; in the series on EMRA-15, 32 µg/mL. Further, the “effect on ATP concentration” value in the series with MRSA USA300 cells [1] is “decrease in ATP concentration”. The Speed of insertion in series [2] is recorded as 0.31 mN/m/10 sec; in series [4] it was 0.39 mN/m/10 sec. In addition, the “Critical pressure of insertion πc” value turned out to be 34.08 mN/m in series [2] and 40.04 mN/m in series [4]. For the same compound, the “reduction in viable cells (time-kill)” value with MRSA USA300 cells [3] is reported as over 6 log10 CFU/ml. Besides, the “time to complete cell death” value with MRSA USA300 cells [3] was at most 10 min. Also, the “larvae survival rate, uninfected larvae” value with G. mellonella larvae is on record as 100%. The “toxic effect in G. mellonella” value in the series on G. mellonella larvae is “no toxic effect”.
